In patent publication US20210061861A1, “D-PEPTIDIC COMPOUNDS FOR VEGF” (Reflexion Pharmaceuticals, Inc., priority 2019, published 2021):
Where “and” joins values, the source holds several entries; their conditions need not be identical. Equal values may be shown once. Bridges are numbered along the chain shown (N, C = ends). Where no end group is shown, it is not given here. [ ]: non-standard residue; d: D form.

Experiments:
[1] = target: T1, VEGF-A121 binding to VEGFR1-Fc (Homo sapiens, UniProt P15692); experiment: non-equilibrium VEGF-A blocking ELISA on VEGFR1-Fc; assay type: biochemical; details: for improvement of IC50 over 11055: non-equilibrium blocking ELISA
T1 construct: purchased Acro Biosystems (VEGF-A121); R&D Systems (VEGFR1-Fc) VE1-H82E7; 3516-FL-050
T1 sequence (P15692 27-147 isoform P15692-9 limits assumed): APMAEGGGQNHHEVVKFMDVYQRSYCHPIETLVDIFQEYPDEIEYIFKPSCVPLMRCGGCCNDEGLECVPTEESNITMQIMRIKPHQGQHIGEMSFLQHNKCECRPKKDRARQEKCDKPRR

[2] = target: T1, VEGF-A121 binding to VEGFR1-Fc; experiment: equilibrium binding VEGF-A121/VEGFR1 blocking ELISA; assay type: biochemical; details: IC50, blocking VEGF-A binding to VEGFR1-Fc, 150 pM VEGF-A, overnight incubation
Text: Biotinylated human VEGF-A121 (isoform 121) was purchased from Acro Biosystems (cat #VE1-H82E7). VEGFR-1-Fc was purchased from R&D Systems (cat #3516-FL-050).
The following day, coated wells were blocked with Super Block (Rockland) for 2 hr with shaking at room temp.
Data plotted are mean±standard deviation of triplicate measurements. IC50 values were derived from 3-parameter fits using Prism (GraphPad) and the error reported is derived from fits.

[3] = test system: VEGF-A signaling through VEGFR2; experiment: VEGFR2 luciferase reporter cell signaling assay (KDR/NFAT-RE HEK293); assay type: cell-based; details: 150 pM VEGF-A; read-out: IC50, inhibition of VEGFR2 signaling (luciferase)
Procedure: Here VEGF-A activates VEGFR2 signaling in 293 cells resulting in luciferase expression as a functional readout. Inhibition of VEGF-A signaling in this system results in a loss of luciferase signal.
Measurement of VEGF cellular signaling was performed using the VEGF Bioassay (Promega). Briefly, HEK293 cells are engineered to express VEGFR-2 coupled to a luciferase response element (KDR/NFAT-RE HEK293). VEGF signaling through VEGFR-2 mediates expression of luciferase which can be quantified using bioluminescence. […] Following incubation Bio-Glo is added to wells according to the manufacturer's protocol and relative luminescence units (RLUs) were measured on a PerkinElmer 2300 Enspire Multimode plate reader. Data plotted are mean±standard deviation of triplicate measurements. IC50 values were derived from 3-parameter fits using Prism (GraphPad) and error reported are derived from fits.

VEGF-A = target: T2, VEGF-A (Homo sapiens, UniProt P15692); experiment: SPR binding of D-peptidic compounds to L-VEGF-A; design: Biotinylated VEGF-A(8-109) was immobilized on a biotin CAPture chip; details: for affinity improvement over 11055: SPR KD ratio versus parent 11055
T2 sequence (P15692 214-315): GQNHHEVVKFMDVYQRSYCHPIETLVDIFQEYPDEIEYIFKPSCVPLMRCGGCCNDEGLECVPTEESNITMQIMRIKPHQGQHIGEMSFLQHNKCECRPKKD
Procedure: Surface plasmon resonance (SPR) binding measurements were carried out on a Biacore S200 (GE). Biotinylated VEGF-A(8-109) was immobilized on a biotin CAPture chip (GE) and serial dilutions of D-proteins were flowed over the chip at 30 μL/min in running buffer (10 mM Hepes, pH 7.4, 150 mM NaCl, 0.05% P20). […] All measurements were carried out at 25° C. SPR data are representative of multiple independent titrations. Kinetic fits were performed using Biacore software using a global single site binding model.

[4] = test system: VEGF-A165-induced vascular leakage; experiment: rabbit eye model of wet AMD, fluorescein angiography; assay type: in vivo; details: single intravitreal dose 1.0 mg
Text: FIG. 44A-44B show in vivo activity of D-protein RFX-980869 in a rabbit eye model of wet AMD. (FIG. 44A) Representative fluorescein angiography (FA) images depicting the extent of VEGF-A165-induced vascular leakage at Day 5 and Day 26 post administration of respective drugs (control=no drug treatment). (FIG. 44B) Plots of individual FA scores at Day 5 and Day 26. Scoring is as follows: 0=major vessels straight with some tortuosity of small vessels and no dilation, 1=increased tortuosity of major vessels and some dilation, 2=leakage between major vessels and significant dilation, 3=leakage between major and minor vessels and minor vessels still visible, 4=leakage between major and minor vessels and minor vessels poorly visible or not visible. N=5 rabbits per group (10 eyes). All data is plotted as mean±SEM. (****p<0.0001, Mann-whitney test)
In the rabbit eye model for wet AMD, intravitreal challenge with exogenous VEGF-A165 induces vascular leakage of the retina that can be monitored using fluorescein angiography (FA). VEGF-A blockade can prevent the diffuse leakage of fluorescein into the eye, which serves as a measure of efficacy. […] After a single intravitreal administration of RFX-980869 at 0.25 mg or 1.0 mg per eye, rabbits were challenged with exogenous VEGF-A twice over a 1-month period (Day 2 and Day 23) and their eyes were examined three days later (Day 5 and Day 26). […]

MC38 colon cancer tumors = experiment: MC38 syngeneic tumor model in C57BL6 mice; assay type: in vivo, mouse
Text: To assess the tumor growth inhibition potential of RFX-980869, the cross-reactivity of RFX-980869 with mouse VEGF-A (data not shown) was studied and used the syngeneic MC38 mouse tumor model. MC38 colon cancer tumors were established in C57BL6 mice transgenic for human PD-1, and reached 82 mm3 prior to initiation of treatment.
Female C57BL6 mice transgenic for human PD-1 (12-13 weeks) were purchased from Beijing Biocytogen Co.). […] MC38 tumor cells (1×10^6) were implanted subcutaneously in the right front flank and tumors were allowed to establish until the mean volume was 82 mm^3. Mice were randomized into treatment groups (N=6 per group) on Day 0 when treatment initiation began. […] All data is plotted as mean ±SEM.

[5] = anti-drug antibodies in serum of the MC38 tumor study; assay type: in vivo, mouse; details: Day 22 serum, low and high dose groups
Text: FIG. 45A-45D show tumor growth inhibition activity of RFX-980869 and lack of immunogenicity. […] N=6 mice per group. (FIG. 45B) Day 15 tumor volumes (*p<0.05, Mann-whitney test) (FIG. 45C) Anti-drug-antibodies from MC38 tumor study measured in Day 22 serum samples using an ELISA for antigen-specific serum IgG. (FIG. 45D) Anti-drug-antibody titers measured from Day 42 serum after subcutaneous immunization of corresponding drugs in BALB/c mice. N=5 mice per group. All data is plotted as mean±SEM.

[6] = subcutaneous immunization in BALB/c mice; details: Day 42 serum; 25 μg s.c. Days 0, 21, 35, adjuvant on Day 0
Procedure: Female BALB/c mice (6-8 weeks) were randomized into immunization groups on Day 0 (n=5 per group) Immunizations were performed on Days 0, 21, 35 by subcutaneous injection of 25 μg of antigen. Antigens were emulsified in adjuvant (TiterMax) for injection on Day 0 and administered in PBS for Days 21 and 35. Serum pre-bleeds were performed on Days 0, 21, 35 prior to immunizations. Final bleeds for max titer response were taken on Day 42.

D-VEGF-A = experiment: competitive phage ELISA, D-VEGF-A binding of L-peptidic compounds; details: D-VEGF-A binding activity
Procedure: Compounds of interest were assessed for VEGF-A binding in a competitive phage ELISA assay.

Text for HUVEC cell proliferation: Here, HUVEC cell proliferation is increased in the presence of recombinant VEGF-A and antagonist compounds that block VEGF-A signaling reduce HUVEC cell proliferation.

Question: Which results are given for “[dY][dH][dI][dQ][dW][dV][dC][dK][dN][dA][dK][dE][dD][dA][dI][dA][dE][dL][dK][dK][dA]G[dI][dT][dE][dP][dH][dV][dI][dS][dF][dI][dN][dH][dA][dP][dN][dC][dS][dH][dV][dN]G[dL][dK][dN][dA][dI][dL][dK][dA][dH][dA]-NH2 (disulfide 7-38) [Compound 979110, yhiqwvcknakedaiaelkkaGitephvisfinhapncshvnGlknailkaha]”?
Answer: IC50 [1]: 3.5 nM; improvement of IC50 over 11055 [1]: 14.8 fold; improvement of IC50 over 11055 ([1]; listed as RFX-979110): 15 fold; IC50 [2]: 7 nM and 7.6 nM; IC50 [3]: 6.1 nM; fold weaker than bevacizumab (Avastin) (HUVEC cell proliferation; HUVEC proliferation): 185 fold; potency improvement over 11055 (HUVEC cell proliferation; HUVEC proliferation): 4 fold; IC50 (HUVEC cell proliferation; read-out: IC50 for inhibition of cell proliferation in response to VEGF signaling, HUVEC, recombinant VEGF-A): 131 nM; affinity improvement over 11055 (VEGF-A): ~10 fold; affinity improvement over 11055 (VEGF-A; listed as RFX-979110): 19 fold; Kd (VEGF-A; VEGF-A binding affinity (KD) measured by SPR, running text and figure legends, L-VEGF-A): 3.6 nM and 2.3 nM

Question: Which “vascular leakage at Day 26” value [4] does the source give for aflibercept here?
Answer: Its value is “completely blocked vascular leakage”.

Question: With nivolumab as the substance, how does the “tumor growth versus vehicle control group” value (MC38 colon cancer tumors; 1 mg/kg biweekly, i.p.) read?
Answer: Its value is “failed to show tumor growth inhibition”.

Question: What about the “MC38 tumor growth curves” value (MC38 colon cancer tumors; FIG. 45A, over both dose levels) of the same substance?
Answer: The value was “dose-dependent efficacy”.

Question: And the tumor growth inhibition (MC38 colon cancer tumors; day 15, 3 mg/kg biweekly)?
Answer: The tumor growth inhibition was 48%.

Question: And the “anti-drug-antibodies, antigen-specific serum IgG titer” value [5]?
Answer: The value was “saturating levels of IgG titer”.

Question: What about the “anti-drug-antibody IgG titer after immunization” value [6] of the same substance?
Answer: Its value is “strong IgG titers”.

Question: Which IC50 (D-VEGF-A) does the source give for “tidqwllknakedaiaelkkcGitephvisfinhapyvshvnGlkanilkaha [Compound 1.1.1]” here?
Answer: The IC50 was 20 to 34 nM.
